Measurements taken from paper PMC10784415 (Developmental dynamics : an official publication of the …, 2023).

Key:
[1] = Toxicokinetics of infigratinib in juvenile rat plasma after oral gavage; format: in vivo, Crl:WI(Han) rat; conditions: Crl:WI(Han), rat, plasma, po
[2] = system: Wistar rats; assay: Histology and immunohistochemistry of mandibles; format: in vivo, rat
[3] = system: CYP 3A4; conditions: liver; cited from earlier work
[4] = female, 0.1 mg/kg/day, Female rats, 0.1 mg/kg/day oral, PND 7
[5] = female, 0.1 mg/kg/day, Female rats, 0.1 mg/kg/day oral, PND 12
[6] = female, 0.1 mg/kg/day, Female rats, 0.1 mg/kg/day oral, PND 23
[7] = female, 0.1 mg/kg/day, Female rats, 0.1 mg/kg/day oral, PND 35
[8] = female, 0.3 mg/kg/day, Female rats, 0.3 mg/kg/day oral, PND 7
[9] = female, 0.3 mg/kg/day, Female rats, 0.3 mg/kg/day oral, PND 12
[10] = female, 0.3 mg/kg/day, Female rats, 0.3 mg/kg/day oral, PND 23
[11] = female, 0.3 mg/kg/day, Female rats, 0.3 mg/kg/day oral, PND 35
[12] = female, 1 mg/kg/day, Female rats, 1.0 mg/kg/day oral, PND 7
[13] = female, 1 mg/kg/day, Female rats, 1.0 mg/kg/day oral, PND 12
[14] = female, 1 mg/kg/day, Female rats, 1.0 mg/kg/day oral, PND 23
[15] = female, 1 mg/kg/day, Female rats, 1.0 mg/kg/day oral, PND 35
[16] = male, 0.1 mg/kg/day, Male rats, 0.1 mg/kg/day oral, PND 7
[17] = male, 0.1 mg/kg/day, Male rats, 0.1 mg/kg/day oral, PND 12
[18] = male, 0.1 mg/kg/day, Male rats, 0.1 mg/kg/day oral, PND 23
[19] = male, 0.1 mg/kg/day, Male rats, 0.1 mg/kg/day oral, PND 35
[20] = male, 0.3 mg/kg/day, Male rats, 0.3 mg/kg/day oral, PND 7
[21] = male, 0.3 mg/kg/day, Male rats, 0.3 mg/kg/day oral, PND 12
[22] = male, 0.3 mg/kg/day, Male rats, 0.3 mg/kg/day oral, PND 23
[23] = male, 0.3 mg/kg/day, Male rats, 0.3 mg/kg/day oral, PND 35
[24] = male, 1 mg/kg/day, Male rats, 1.0 mg/kg/day oral, PND 7
[25] = male, 1 mg/kg/day, Male rats, 1.0 mg/kg/day oral, PND 12
[26] = male, 1 mg/kg/day, Male rats, 1.0 mg/kg/day oral, PND 23
[27] = male, 1 mg/kg/day, Male rats, 1.0 mg/kg/day oral, PND 35

Q: What does the source list for `CCN1CCN(c2ccc(Nc3cc(N(C)C(=O)Nc4c(Cl)c(OC)cc(OC)c4Cl)ncn3)cc2)CC1` [infigratinib, 3-(2,6-Dichloro-3,5-dimethoxy-phenyl)-1-{6-[4-(4-ethyl-piperazin-1-yl)-phenylamino]-pyrimidin-4-yl}-1-methyl-urea]?
A: Cmax [1, 4]: 4.18 ng/mL; Cmax [1, 5]: 3.4 ng/mL; Cmax [1, 6]: 0.78 ng/mL; Cmax [1, 7]: 0.3 ng/mL; half-life ([1]; female, 0.1 mg/kg/day, T1/2, Female rats, 0.1 mg/kg/day oral, PND 7): 4.7 h; half-life ([1]; female, 0.1 mg/kg/day, T1/2, Female rats, 0.1 mg/kg/day oral, PND 12): 5.66 h; Tmax [1, 4]: 3 h; Tmax [1, 5]: 3 h; Tmax [1, 6]: 3 h; Tmax [1, 7]: 1 h; AUC(0-t) [1, 8]: 183 ng·h/mL; AUC(0-t) [1, 9]: 137 ng·h/mL; AUC(0-t) [1, 10]: 18.8 ng·h/mL; AUC(0-t) [1, 11]: 4.54 ng·h/mL; Cmax [1, 8]: 19.4 ng/mL; Cmax [1, 9]: 14.9 ng/mL; Cmax [1, 10]: 2.25 ng/mL; Cmax [1, 11]: 0.66 ng/mL; half-life ([1]; female, 0.3 mg/kg/day, T1/2, Female rats, 0.3 mg/kg/day oral, PND 7): 4.26 h; half-life ([1]; female, 0.3 mg/kg/day, T1/2, Female rats, 0.3 mg/kg/day oral, PND 12): 3.82 h; half-life ([1]; female, 0.3 mg/kg/day, T1/2, Female rats, 0.3 mg/kg/day oral, PND 23): 4.53 h; Tmax [1, 8]: 3 h; Tmax [1, 9]: 3 h; Tmax [1, 10]: 3 h; Tmax [1, 11]: 3 h; AUC(0-t) [1, 12]: 516 ng·h/mL; AUC(0-t) [1, 13]: 593 ng·h/mL; AUC(0-t) [1, 14]: 73 ng·h/mL; Cmax [1, 12]: 53.2 ng/mL; Cmax [1, 13]: 56.6 ng/mL; Cmax [1, 14]: 10.4 ng/mL; Cmax [1, 15]: 4.04 ng/mL; half-life ([1]; female, 1 mg/kg/day, T1/2, Female rats, 1.0 mg/kg/day oral, PND 7): 5.23 h; half-life ([1]; female, 1 mg/kg/day, T1/2, Female rats, 1.0 mg/kg/day oral, PND 12): 3.97 h; half-life ([1]; female, 1 mg/kg/day, T1/2, Female rats, 1.0 mg/kg/day oral, PND 23): 3.25 h; half-life ([1]; female, 1 mg/kg/day, T1/2, Female rats, 1.0 mg/kg/day oral, PND 35): 2.51 h; Tmax [1, 12]: 3 h; Tmax [1, 13]: 1 h; Tmax [1, 14]: 1 h; Tmax [1, 15]: 1 h; AUC(0-t) [1, 16]: 31.9 ng·h/mL; AUC(0-t) [1, 17]: 39.4 ng·h/mL; AUC(0-t) [1, 18]: 3.81 ng·h/mL; AUC(0-t) [1, 19]: 1.95 ng·h/mL; Cmax [1, 16]: 3.21 ng/mL; Cmax [1, 17]: 3.32 ng/mL; Cmax [1, 18]: 0.577 ng/mL; Cmax [1, 19]: 0.307 ng/mL; half-life ([1]; male, 0.1 mg/kg/day, T1/2, Male rats, 0.1 mg/kg/day oral, PND 7): 5.1 h; half-life ([1]; male, 0.1 mg/kg/day, T1/2, Male rats, 0.1 mg/kg/day oral, PND 12): 6.34 h; half-life ([1]; male, 0.1 mg/kg/day, T1/2, Male rats, 0.1 mg/kg/day oral, PND 35): 2.2 h; Tmax [1, 16]: 3 h; Tmax [1, 17]: 3 h; Tmax [1, 18]: 3 h; Tmax [1, 19]: 1 h; AUC(0-t) [1, 20]: 114 ng·h/mL; AUC(0-t) [1, 21]: 149 ng·h/mL; AUC(0-t) [1, 22]: 21.5 ng·h/mL; AUC(0-t) [1, 23]: 6 ng·h/mL; Cmax [1, 20]: 11.6 ng/mL; Cmax [1, 21]: 14.1 ng/mL; Cmax [1, 22]: 2.13 ng/mL; Cmax [1, 23]: 0.924 ng/mL; half-life ([1]; male, 0.3 mg/kg/day, T1/2, Male rats, 0.3 mg/kg/day oral, PND 7): 5.58 h; half-life ([1]; male, 0.3 mg/kg/day, T1/2, Male rats, 0.3 mg/kg/day oral, PND 12): 3.75 h; half-life ([1]; male, 0.3 mg/kg/day, T1/2, Male rats, 0.3 mg/kg/day oral, PND 23): 4.37 h; Tmax [1, 20]: 3 h; Tmax [1, 21]: 3 h; Tmax [1, 22]: 3 h; Tmax [1, 23]: 3 h; AUC(0-t) [1, 24]: 375 ng·h/mL; AUC(0-t) [1, 25]: 596 ng·h/mL; AUC(0-t) [1, 26]: 87.2 ng·h/mL; AUC(0-t) [1, 27]: 24.3 ng·h/mL; Cmax [1, 24]: 37.3 ng/mL; Cmax [1, 25]: 68.8 ng/mL; Cmax [1, 26]: 11.2 ng/mL; Cmax [1, 27]: 2.98 ng/mL; half-life ([1]; male, 1 mg/kg/day, T1/2, Male rats, 1.0 mg/kg/day oral, PND 12): 3.33 h; half-life ([1]; male, 1 mg/kg/day, T1/2, Male rats, 1.0 mg/kg/day oral, PND 23): 3.64 h; Tmax [1, 24]: 7 h; Tmax [1, 25]: 3 h; Tmax [1, 26]: 3 h; Tmax [1, 27]: 3 h; Rats with root resorption (cathepsin K staining) ([2]; female rats, high dose, PND37 (vehicle 75%)): 25%; Rats with root resorption (cathepsin K staining) ([2]; female rats, low dose, PND37 (vehicle 75%)): 50%; Rats with root resorption (cathepsin K staining) ([2]; male rats, low or high dose, PND37 (vehicle 25%)): no male rats in either low or high dose groups exhibited root resorption; Metabolism [3]: metabolized mainly via CYP 3A4
